Source: BigSolDB 2.1

CC1(C)C2CCC1(CS(=O)(=O)O)C(=O)C2 (stereo not drawn)
solubility (mole fraction)
Conditions	in acetyl acetate	in methyl acetate
305.7 K	0.099	0.0236
310.6 K	0.122	0.0278
313.7 K	–	0.0316
315.1 K	0.134	0.0339
317.4 K	0.15	–
320.1 K	–	0.0409
321.4 K	0.161	0.039
324.9 K	0.173	0.0459
328.9 K	0.179	–
329.1 K	–	0.0546
331.7 K	0.181	–
334.6 K	–	0.0726
339.1 K	–	0.0906
